Where two headings read alike, the source gives them in different places.
Experiments:
[1] = system: HepG2 cells, primary human hepatocytes; conditions: In vitro Assay; ref Garside 2014; cited from earlier work
[2] = read-out: Human plasma Cmax; total plasma Cmax.tot, median of 9 literature references; cited from earlier work
[3] = system: human hepatocytes; conditions: In vitro Assay; ref Xu 2008; cited from earlier work
[4] = system: PHH spheroids; conditions: In vitro Assay; ref Vorrink 2018; cited from earlier work
[5] = system: hLiMTs; assay: Combined HCI (HCS) and cellular ATP 3D assay in hLiMTs; conditions: for AC50 / minimal effective concentration: Homo sapiens; for hLiMTs <25x Avg Cmax ATP / hLiMTs <100x Avg Cmaxu ATP: ATP endpoint; for hLiMTs <25x Avg Cmax ATP / hLiMTs <25x Avg Cmax HCS / hLiMTs <25x Avg Cmax All: cut-off <25x Avg Cmax; for hLiMTs <100x Avg Cmaxu ATP / hLiMTs <100x Avg Cmaxu HCS / hLiMTs <100x Avg Cmaxu All: cut-off <100x Avg Cmaxu; for hLiMTs <25x Avg Cmax HCS / hLiMTs <100x Avg Cmaxu HCS: HCS endpoints; for hLiMTs <25x Avg Cmax All: all endpoints (ATP and HCS); for hLiMTs Cmax max All / hLiMTs Cmax min All / hLiMTs <10 uM All / hLiMTs <100x Avg Cmaxu All: all endpoints; for hLiMTs Cmax max All: Cmax max used; for hLiMTs Cmax min All: Cmax min used; for hLiMTs <10 uM All: cut-off <10 uM
[6] = plasma free fraction; cited from earlier work
[7] = system: HepaRG spheroids; assay: Combined HCI (HCS) and cellular ATP 3D assay in HepaRG spheroids; conditions: for HepaRG <25x Avg Cmax ATP / HepaRG <100x Avg Cmaxu ATP: ATP endpoint; for HepaRG <25x Avg Cmax ATP / HepaRG <25x Avg Cmax HCS / HepaRG <25x Avg Cmax All: cut-off <25x Avg Cmax; for HepaRG <100x Avg Cmaxu ATP / HepaRG <100x Avg Cmaxu HCS / HepaRG <100x Avg Cmaxu All: cut-off <100x Avg Cmaxu; for HepaRG <25x Avg Cmax HCS / HepaRG <100x Avg Cmaxu HCS: HCS endpoints; for HepaRG <25x Avg Cmax All: all endpoints (ATP and HCS); for HepaRG Cmax max All / HepaRG Cmax min All / HepaRG <10 uM All / HepaRG <100x Avg Cmaxu All: all endpoints; for HepaRG Cmax max All: Cmax max used; for HepaRG Cmax min All: Cmax min used; for HepaRG <10 uM All: cut-off <10 uM; for AC50 / minimal effective concentration: Homo sapiens; for HepaRG <25x Avg Cmax ATP / HepaRG <100x Avg Cmaxu ATP / HepaRG <25x Avg Cmax HCS / HepaRG <100x Avg Cmaxu HCS / HepaRG <25x Avg Cmax All / HepaRG Cmax max All / HepaRG Cmax min All / HepaRG <10 uM All / HepaRG <100x Avg Cmaxu All / AC50 / minimal effective concentration: HepaRG
[8] = system: isolated mouse liver mitochondria; conditions: In vitro Assay; ref Porceddu 2012; cited from earlier work
[9] = Plasma free fraction (fu) and unbound Cmax (Cmax,u); assay type: in vitro ADME, human; conditions: unbound plasma Cmax
Procedure: The prediction of DILI severity was evaluated further using the 3D combined HCI assays using plasma-free fraction. The majority of fu values were obtained from literature, when unavailable in-house prediction was utilised. Unbound plasma Cmax concentrations (Cmax,u) were derived by multiplying total plasma Cmax with the corresponding free fraction (fu) for each compound.

[10] = system: HepG2 C3A spheroid, BSEP, Glu/Gal in HepG2 cells, bioactivation; conditions: In vitro Assay; ref Williams 2019; cited from earlier work
[11] = system: THLE or HepG2 cells, isolated mitochondria, BSEP; conditions: cited from earlier work
[12] = Microtissue model structural based (HCI), combined HCS and ATP, MEC < 25 × Cmax.tot cut-off
[13] = Modeled in vitro assays (cytotoxicity, mitochondrial dysfunction, BSEP), ref Aleo et al. 2019

Row | Compound | Cmax [2] | hLiMTs <25x Avg Cmax ATP [5] | hLiMTs <100x Avg Cmaxu ATP [5] | hLiMTs <25x Avg Cmax HCS [5] | hLiMTs <100x Avg Cmaxu HCS [5] | hLiMTs <25x Avg Cmax All [5] | hLiMTs Cmax max All [5] | hLiMTs Cmax min All [5] | hLiMTs <10 uM All [5] | hLiMTs <100x Avg Cmaxu All [5] | fu [6] | HepaRG <25x Avg Cmax ATP [7] | HepaRG <100x Avg Cmaxu ATP [7] | HepaRG <25x Avg Cmax HCS [7] | HepaRG <100x Avg Cmaxu HCS [7] | HepaRG <25x Avg Cmax All [7] | HepaRG Cmax max All [7] | HepaRG Cmax min All [7] | HepaRG <10 uM All [7] | HepaRG <100x Avg Cmaxu All [7] | further results
1 | CC/C(=C(\c1ccccc1)c1ccc(OCCN(C)C)cc1)c1ccccc1 [tamoxifen] | 320 nM | +ve | -ve | +ve | -ve | +ve | +ve | +ve | +ve (<10 uM) | -ve | 0.010 | -ve | -ve | +ve | -ve | +ve | +ve | +ve | +ve (<10 uM) | -ve | Cluster 1-6 +VE Assay [1]: +VE; Structural based (HCI) [3]: -VE; hLiMTs ATP <20 x Cmax [4]: +VE (IC20 < 20 × Cmax.tot cut-off); AC50 ([5]; read-out: ATP endpoint AC50): 6.13 µM; minimal effective concentration ([5]; read-out: ATP endpoint MEC): 3.93 µM; AC50 ([5]; read-out: HCS endpoint AC50): 7.49 µM; minimal effective concentration ([5]; read-out: HCS endpoint MEC): 1.97 µM; AC50 ([7]; read-out: ATP endpoint AC50): 12.7 µM; minimal effective concentration ([7]; read-out: ATP endpoint MEC): 10.8 µM; AC50 ([7]; read-out: HCS endpoint AC50): 16.7 µM; minimal effective concentration ([7]; read-out: HCS endpoint MEC): 3.52 µM; in vitro data EC2<=1x Cmax [8]: +VE; in vitro data EC20<=2uM [8]: +VE; Human plasma Cmax,u [9]: 3 nM
2 | N[C@@H](Cc1cc(I)c(Oc2ccc(O)c(I)c2)c(I)c1)C(=O)O [liothyronine] | 2 nM | -ve | -ve | -ve | -ve | -ve | -ve | -ve | -ve | -ve | 0.020 | -ve | -ve | -ve | -ve | -ve | -ve | -ve | +ve (<10 uM) | -ve | Bayesian Machine Learning [10]: -VE; DILI prediction hLiMTs (HCS-MEC) [5, 12]: -VE; AC50 ([7]; read-out: ATP endpoint AC50): 30.5 µM; minimal effective concentration ([7]; read-out: ATP endpoint MEC): 11.5 µM; AC50 ([7]; read-out: HCS endpoint AC50): 82.8 µM; minimal effective concentration ([7]; read-out: HCS endpoint MEC): 4.14 µM; DILI prediction HepaRG spheroids (HCS-MEC) [7, 12]: -VE; Human plasma Cmax,u [9]: 0.05 nM; Partition Hybrid HRM Score ([11]; In vitro Assay, ref Aleo 2019): -VE; Ro2 Hybrid HRM Score ([11]; In vitro Assay, ref Aleo 2019): -VE; Partition Hybrid HRM Score ≥4, Aleo (2019) [11, 13]: -VE; Partition Hybrid HRM Score ≥8, Aleo (2019) [11, 13]: -VE; Rule of Two hybrid HRM Score ≥3, Aleo (2019) [11, 13]: -VE; Rule of Two hybrid HRM Score ≥8, Aleo (2019) [11, 13]: -VE

From PMC7395068, “The evolution of strategies to minimise the risk of human drug-induced liver injury (DILI) in drug discovery and development” (Archives of Toxicology, 2020)
